Measured values: US7314958B2, “Phenylbenzamides” (Bayer CropScience AG, priority 2002, dated 2008)

Experiments:
[1] = logP determination by HPLC, reversed-phase column (C 18), acidic range; format: physicochemical; details: pH 2.3, 0.1% aqueous phosphoric acid/acetonitrile, 43° C.
Procedure: The logP values given in the Preparation Examples were determined in accordance with EEC Directive 79/831 Annex V.A8 by HPLC (High Performance Liquid Chromatography) using a reversed-phase column (C 18). Temperature: 43° C. Mobile phases for the determination in the acidic range: 0.1% aqueous phosphoric acid, acetonitrile; linear gradient from 10% acetonitrile to 90% acetonitrile. Calibration was carried out using unbranched alkan-2-ones (having 3 to 16 carbon atoms) with known logP values (determination of the logP values by the retention times using linear interpolation between two successive […]).

Puccinia recondita = experiment: Puccinia test (wheat)/protective; format: in vivo; details: 240 h, protective, application rate 500 g/ha, evaluation 10 days after inoculation, read-out: Efficacy in %
Procedure: Puccinia Test (Wheat)/Protective • Solvent: 25 parts by weight of N,N-dimethylacetamide • Emulsifier: 0.6 part by weight of alkylaryl polyglycol ether To produce a suitable preparation of active compound, 1 part by weight of active compound is mixed with the stated amounts of solvent and emulsifier, and the concentrate is diluted with water to the desired concentration. To test for protective activity, young plants are inoculated with a spore suspension of Puccinia recondita in a 0.1% strength aqueous agar solution. After the spray coating has dried on, the plants are sprayed with the preparation of active compound at the stated application rate. The plants remain in an incubation cabin at 20° C. and 100% relative atmospheric humidity for 24 hours. The plants are then placed in a greenhouse at a temperature of about 20° C. and a relative atmospheric humidity of 80% to promote the development of rust pustules. Evaluation is carried out 10 days after the inoculation. 0% means an efficacy which corresponds to that of the control, whereas an efficacy of 100% means that no infection is observed.

Row | chromatographic logP [1] | Compound | pest or weed control at 500 g/ha (Puccinia recondita)
1 | 3.98 | CC(C)CC(C)c1ccccc1NC(=O)c1ccccc1Cl (stereo not drawn) [Example 4, N-[2-(1,3-dimethylbutyl)phenyl]-2-chlorobenzamide] | 
2 | 4.29 | CC(CC(C)(C)C)c1ccccc1NC(=O)c1ccccc1Br (stereo not drawn) [Example 8, 2-bromo-N-[2-(1,3,3-trimethylbutyl)phenyl]benzamide] | 
3 | 4.63 | CCC(C)(C)CC(C)c1ccccc1NC(=O)c1ccccc1Br (stereo not drawn) [Example 13, (2-bromophenyl)-N-[2-(1,3,3-trimethylpentyl)phenyl]carboxamide] | 
4 | 4.4 | CC(CC(C)(C)C)c1ccccc1NC(=O)c1ccccc1I (stereo not drawn) [Example 9, 2-iodo-N-[2-(1,3,3-trimethylbutyl)phenyl]benzamide] | 
5 | 4.71 | CCC(C)(C)CC(C)c1ccccc1NC(=O)c1ccccc1I (stereo not drawn) [Example 10, (2-iodophenyl)-N-[2-(1,3,3-trimethylpentyl)phenyl]carboxamide] | 
6 | 4.68 | CCC(C)(C)CC(C)c1ccccc1NC(=O)c1ccccc1C(F)(F)F (stereo not drawn) [Example 11, [2-(trifluoromethyl)phenyl]-N-[2-(1,3,3-trimethylpentyl)phenyl]carboxamide] | 
7 | 4.6 | CCC(C)(C)CC(C)c1ccccc1NC(=O)c1ccccc1Cl (stereo not drawn) [Example 12, (2-chlorophenyl)-N-[2-(1,3,3-trimethylpentyl)phenyl]carboxamide] | 
8 | 4.25 | CC(CC(C)(C)C)c1ccccc1NC(=O)c1ccccc1Cl (stereo not drawn) [Example 7, 2-chloro-N-[2-(1,3,3-trimethylbutyl)phenyl]benzamide] | 
9 | 4.36 | CC(CC(C)(C)C)c1ccccc1NC(=O)c1ccccc1C(F)(F)F (stereo not drawn) [Example 6, 2-(trifluoromethyl)-N-[2-(1,3,3-trimethylbutyl)phenyl]benzamide] | 

Second part, the molecule before the results:

Row | Compound | chromatographic logP [1] | pest or weed control at 500 g/ha (Puccinia recondita)
10 | CC(C)CC(C)c1ccccc1NC(=O)c1ccccc1C(F)(F)F (stereo not drawn) [drawing 20] |  | 100%
11 | CCC(C)(C)CC(C)c1ccccc1NC(=O)c1ccccc1C(F)(F)F (stereo not drawn) [drawing 26] |  | 100%
12 | CC(C)CC(C)c1ccccc1NC(=O)c1ccccc1I (stereo not drawn) [drawing 21] |  | 100%
13 | CC(C)CC(C)c1ccccc1NC(=O)c1ccccc1Br (stereo not drawn) [drawing 22] |  | 100%
14 | CC(CC(C)(C)C)c1ccccc1NC(=O)c1ccccc1Br (stereo not drawn) [drawing 24] |  | 100%
15 | CC(CC(C)(C)C)c1ccccc1NC(=O)c1ccccc1I (stereo not drawn) [drawing 28] |  | 100%
16 | CC(C)CC(C)c1ccccc1NC(=O)c1ccccc1Cl (stereo not drawn) [drawing 23] |  | 100%
17 | CC(CC(C)(C)C)c1ccccc1NC(=O)c1ccccc1C(F)(F)F (stereo not drawn) [drawing 27] |  | 100%
18 | CC(CC(C)(C)C)c1ccccc1NC(=O)c1ccccc1Cl (stereo not drawn) [drawing 25] |  | 100%
